# Assay results from US10668067B2, “Pyridine sulfonamides” (AMGEN INC., priority 2016, dated 2020).
# Molecular target: human Nav1.7 (Homo sapiens (Human), UniProt Q15858)
# Assay: Nav 1.7 In Vitro PX Assay (PatchXpress whole cell voltage clamp)
# Assay type: cell-based
# Details: in-vitro Nav 1.7 PX data
# Procedure: HEK 293 cells stably transfected with human Nav1.7 were recorded in whole cell voltage clamp mode with the PatchXpress automated electrophysiology system (Molecular Devices, LLC, Sunnyvale, Calif.). Compound effects were measured on a partially inactivated state of the sodium channel. Cells were clamped to a holding potential yielding 20 to 50% inactivation. To elicit sodium current, channels were activated by pulsing to −10 mV for 20 msec. This voltage protocol was repeated at a rate of 0.1 Hz throughout the experiment. A single concentration of test compound was applied to cells for a duration of 3 minutes. Peak sodium current was measured at the end of the compound addition period to determine percent inhibition. Three to five cells were tested per concentration, and IC50 curves were fitted to percent inhibition as a function of concentration.
# human Nav1.7, sequence (Q15858 whole entry): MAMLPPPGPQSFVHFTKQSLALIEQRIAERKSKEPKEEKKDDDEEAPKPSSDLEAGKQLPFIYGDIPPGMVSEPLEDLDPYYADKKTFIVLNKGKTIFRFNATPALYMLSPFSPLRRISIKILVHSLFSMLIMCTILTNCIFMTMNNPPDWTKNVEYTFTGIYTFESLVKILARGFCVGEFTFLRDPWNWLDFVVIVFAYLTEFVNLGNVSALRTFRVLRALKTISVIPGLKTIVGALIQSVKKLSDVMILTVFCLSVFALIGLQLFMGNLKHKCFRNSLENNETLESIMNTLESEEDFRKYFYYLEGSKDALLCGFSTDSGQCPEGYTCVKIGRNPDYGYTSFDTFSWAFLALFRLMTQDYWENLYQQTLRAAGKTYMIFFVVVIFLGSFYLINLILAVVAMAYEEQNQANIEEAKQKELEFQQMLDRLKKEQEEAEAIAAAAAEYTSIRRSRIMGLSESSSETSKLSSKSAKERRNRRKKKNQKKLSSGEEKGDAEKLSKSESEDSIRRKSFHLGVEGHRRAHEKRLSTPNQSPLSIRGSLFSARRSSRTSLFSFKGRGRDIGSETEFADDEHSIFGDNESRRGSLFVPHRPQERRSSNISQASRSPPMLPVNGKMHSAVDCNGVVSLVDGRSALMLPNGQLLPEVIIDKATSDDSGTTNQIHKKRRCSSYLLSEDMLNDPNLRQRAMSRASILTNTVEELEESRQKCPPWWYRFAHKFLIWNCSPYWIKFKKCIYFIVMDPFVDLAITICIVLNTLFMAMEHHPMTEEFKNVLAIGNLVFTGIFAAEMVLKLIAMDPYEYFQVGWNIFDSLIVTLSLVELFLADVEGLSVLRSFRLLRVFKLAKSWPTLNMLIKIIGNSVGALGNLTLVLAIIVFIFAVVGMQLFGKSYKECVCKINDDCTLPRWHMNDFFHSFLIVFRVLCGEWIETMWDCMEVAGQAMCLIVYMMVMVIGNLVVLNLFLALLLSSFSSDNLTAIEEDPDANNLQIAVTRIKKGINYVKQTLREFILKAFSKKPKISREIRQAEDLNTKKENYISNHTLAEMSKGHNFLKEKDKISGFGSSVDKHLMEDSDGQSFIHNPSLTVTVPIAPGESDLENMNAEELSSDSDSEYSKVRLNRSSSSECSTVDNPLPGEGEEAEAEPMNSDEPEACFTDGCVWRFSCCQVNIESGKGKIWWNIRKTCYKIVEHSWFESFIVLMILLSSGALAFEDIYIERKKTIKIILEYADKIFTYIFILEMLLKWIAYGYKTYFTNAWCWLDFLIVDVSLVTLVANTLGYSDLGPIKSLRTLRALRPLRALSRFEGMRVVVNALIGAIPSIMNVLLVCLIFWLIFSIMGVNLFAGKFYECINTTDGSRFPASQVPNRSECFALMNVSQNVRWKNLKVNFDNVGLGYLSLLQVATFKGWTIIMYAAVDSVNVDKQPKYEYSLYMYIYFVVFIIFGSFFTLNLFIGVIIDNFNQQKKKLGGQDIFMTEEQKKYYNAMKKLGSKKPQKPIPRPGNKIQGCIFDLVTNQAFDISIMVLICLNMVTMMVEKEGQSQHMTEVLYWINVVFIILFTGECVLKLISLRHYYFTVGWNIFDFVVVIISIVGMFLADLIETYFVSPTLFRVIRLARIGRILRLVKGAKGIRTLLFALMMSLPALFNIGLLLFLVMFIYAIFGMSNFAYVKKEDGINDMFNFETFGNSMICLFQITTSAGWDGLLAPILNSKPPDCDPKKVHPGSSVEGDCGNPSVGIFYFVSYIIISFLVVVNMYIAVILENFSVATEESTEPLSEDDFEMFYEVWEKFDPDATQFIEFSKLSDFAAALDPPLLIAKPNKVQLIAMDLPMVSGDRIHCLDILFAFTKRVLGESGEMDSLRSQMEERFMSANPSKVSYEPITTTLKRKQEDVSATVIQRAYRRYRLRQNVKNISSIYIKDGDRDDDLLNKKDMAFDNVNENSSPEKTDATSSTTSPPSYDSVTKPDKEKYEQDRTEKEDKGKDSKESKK
row,SMILES,IC50
1,"CNC(=O)N(c1ccc(S(=O)(=O)Nc2ccon2)cn1)c1cc(Cl)c(-c2ccc(Cl)c(C#N)c2)cc1OC [Example 1-54, 6-((2,4′-dichloro-3′-cyano-5-methoxy-4-biphenylyl)(methylcarbamoyl)amino)-N-3-isoxazolyl-3-pyridinesulfonamide]",52 nM
2,"CNC(=O)N(c1ccc(S(=O)(=O)Nc2ccon2)cn1)c1cc(Cl)c(-c2cc(C(F)(F)F)ccc2F)cc1OC [Example 1-55, 6-((2-chloro-2′-fluoro-5-methoxy-5′-(trifluoromethyl)-4-biphenylyl)(methylcarbamoyl)amino)-N-3-isoxazolyl-3-pyridinesulfonamide]",17 nM
3,"CNC(=O)N(c1ccc(S(=O)(=O)Nc2ccon2)cn1)c1cc(Cl)c(-c2cc(OC(F)(F)F)ccc2OC)cc1OC [Example 1-56, 6-((2-chloro-2′,5-dimethoxy-5′-(trifluoromethoxy)-4-biphenylyl)(methylcarbamoyl)amino)-N-3-isoxazolyl-3-pyridinesulfonamide]",19 nM
4,"CNC(=O)N(c1ccc(S(=O)(=O)Nc2ccon2)cn1)c1cc(Cl)c(-c2ccc(F)c(OCC(F)(F)F)c2)cc1OC [Example 1-57, 6-((2-chloro-4′-fluoro-5-methoxy-3′-(2,2,2-trifluoroethoxy)-4-biphenylyl)(methylcarbamoyl)amino)-N-3-isoxazolyl-3-pyridinesulfonamide]",24 nM
5,"CNC(=O)N(c1ccc(S(=O)(=O)Nc2ccon2)cn1)c1cc(Cl)c(C2CC2)cc1OC [Example 1-59, 6-((5-chloro-4-cyclopropyl-2-methoxyphenyl)(methylcarbamoyl)amino)-N-3-isoxazolyl-3-pyridinesulfonamide]",3020 nM
6,"CNC(=O)N(c1ccc(S(=O)(=O)Nc2ccon2)cn1)c1cc(Cl)c(-c2ccc(F)c(Cl)c2)cc1OC [Example 1-60, 6-((2,3′-dichloro-4′-fluoro-5-methoxy-4-biphenylyl)(methylcarbamoyl)amino)-N-3-isoxazolyl-3-pyridinesulfonamide]",19 nM
7,"CNC(=O)N(c1ccc(S(=O)(=O)Nc2ccon2)cn1)c1cc(Cl)c(-c2ccc(C)c(Cl)c2)cc1OC [Example 1-61, 6-((2,3′-dichloro-5-methoxy-4′-methyl-4-biphenylyl)(methylcarbamoyl)amino)-N-3-isoxazolyl-3-pyridinesulfonamide]",20 nM
8,"CNC(=O)N(c1ccc(S(=O)(=O)Nc2ccon2)cn1)c1cc(Cl)c(-c2ccc(C)c(F)c2)cc1OC [Example 1-62, 6-((2-chloro-3′-fluoro-5-methoxy-4′-methyl-4-biphenylyl)(methylcarbamoyl)amino)-N-3-isoxazolyl-3-pyridinesulfonamide]",64 nM
9,"CNC(=O)N(c1ccc(S(=O)(=O)Nc2ccon2)cn1)c1cc(Cl)c(-c2ccc(Cl)c(F)c2)cc1OC [Example 1-63, 6-((2,4′-dichloro-3′-fluoro-5-methoxy-4-biphenylyl)(methylcarbamoyl)amino)-N-3-isoxazolyl-3-pyridinesulfonamide]",28 nM
10,"CNC(=O)N(c1ccc(S(=O)(=O)Nc2ccon2)cn1)c1cc(Cl)c(-c2cc(OC)cc(OC)c2)cc1OC [Example 1-64, 6-((2-chloro-3′,5,5′-trimethoxy-4-biphenylyl)(methylcarbamoyl)amino)-N-3-isoxazolyl-3-pyridinesulfonamide]",78 nM
11,"CNC(=O)N(c1ccc(S(=O)(=O)Nc2ccon2)cn1)c1cc(Cl)c(-c2ccc(F)c(F)c2)cc1OC [Example 1-65, 6-((2-chloro-3′,4′-difluoro-5-methoxy-4-biphenylyl)(methylcarbamoyl)amino)-N-3-isoxazolyl-3-pyridinesulfonamide]",54 nM
12,"CNC(=O)N(c1ccc(S(=O)(=O)Nc2ccon2)cn1)c1cc(Cl)c(-c2cc(OC)c(F)c(OC)c2)cc1OC [Example 1-66, 6-((2-chloro-4′-fluoro-3′,5,5′-trimethoxy-4-biphenylyl)(methylcarbamoyl)amino)-N-3-isoxazolyl-3-pyridinesulfonamide]",59 nM
13,"CCOc1cc(-c2cc(OC)c(N(C(=O)NC)c3ccc(S(=O)(=O)Nc4ccon4)cn3)cc2Cl)ccc1F [Example 1-67, 6-((2-chloro-3′-ethoxy-4′-fluoro-5-methoxy-4-biphenylyl)(methylcarbamoyl)amino)-N-3-isoxazolyl-3-pyridinesulfonamide]",34 nM
14,"CNC(=O)N(c1ccc(S(=O)(=O)Nc2ccon2)cn1)c1cc(Cl)c(-c2cc(F)c(F)c(OC)c2)cc1OC [Example 1-68, 6-((2-chloro-3′,4′-difluoro-5,5′-dimethoxy-4-biphenylyl)(methylcarbamoyl)amino)-N-3-isoxazolyl-3-pyridinesulfonamide]",23 nM
15,"CNC(=O)N(c1ccc(S(=O)(=O)Nc2ccon2)cn1)c1cc(Cl)c(-c2ccc(F)c(OC(F)(F)F)c2)cc1OC [Example 1-69, 6-((2-chloro-4′-fluoro-5-methoxy-3′-(trifluoromethoxy)-4-biphenylyl)(methylcarbamoyl)amino)-N-3-isoxazolyl-3-pyridinesulfonamide]",6 nM
16,"CNC(=O)N(c1ccc(S(=O)(=O)Nc2ccon2)cn1)c1cc(Cl)c(-c2ccc(Cl)cc2)cc1OC [Example 1-70, 6-((2,4′-dichloro-5-methoxy-4-biphenylyl)(methylcarbamoyl)amino)-N-3-isoxazolyl-3-pyridinesulfonamide]",52 nM
17,"CNC(=O)N(c1ccc(S(=O)(=O)Nc2ccon2)cn1)c1ccc(-c2ccc(F)c(C)c2)cc1OC [Example 1-71, 6-((4′-fluoro-3-methoxy-3′-methyl-4-biphenylyl)(methylcarbamoyl)amino)-N-3-isoxazolyl-3-pyridinesulfonamide]",398 nM
18,"CNC(=O)N(c1ccc(S(=O)(=O)Nc2ccon2)cn1)c1ccc(-c2cc(Cl)cc(OC)c2)cc1OC [Example 1-72, 6-((3′-chloro-3,5′-dimethoxy-4-biphenylyl)(methylcarbamoyl)amino)-N-3-isoxazolyl-3-pyridinesulfonamide]",101 nM
19,"CNC(=O)N(c1ccc(S(=O)(=O)Nc2ccon2)cn1)c1ccc(-c2ccc(Cl)c(C)c2)cc1OC [Example 1-73, 6-((4′-chloro-3-methoxy-3′-methyl-4-biphenylyl)(methylcarbamoyl)amino)-N-3-isoxazolyl-3-pyridinesulfonamide]",65 nM
20,"CNC(=O)N(c1ccc(S(=O)(=O)Nc2ccon2)cn1)c1ccc(-c2cc(F)cc(Cl)c2)cc1OC [Example 1-74, 6-((3′-chloro-5′-fluoro-3-methoxy-4-biphenylyl)(methylcarbamoyl)amino)-N-3-isoxazolyl-3-pyridinesulfonamide]",84 nM
21,"CNC(=O)N(c1ccc(S(=O)(=O)Nc2ncccn2)cn1)c1cc(Cl)c(-c2ccc(Cl)c(C#N)c2)cc1OC [Example 1-75, 6-((2,4′-dichloro-3′-cyano-5-methoxy-4-biphenylyl)(methylcarbamoyl)amino)-N-2-pyrimidinyl-3-pyridinesulfonamide]",106 nM
22,"CNC(=O)N(c1ccc(S(=O)(=O)Nc2ncccn2)cn1)c1cc(Cl)c(-c2ccc(F)c(F)c2)cc1OC [Example 1-76, 6-((2-chloro-3′,4′-difluoro-5-methoxy-4-biphenylyl)(methylcarbamoyl)amino)-N-2-pyrimidinyl-3-pyridinesulfonamide]",116 nM
